# Columns and labels:
# [1] = comparator rosiglitazone maleate
# [2] = Exposure of Form A to different relative humidities, water content by Karl Fischer; type: physicochemical
# Description: The water content is determined by the Karl Fischer method.
# 5-[[4-[2-(methyl-2-pyridinylamino)ethoxy]phenyl]methyl]-2,4-thiazolidinedione phosphate hydrate in its polymorphic Form A was exposed to different relative humidities for about 24 hours.
# [3] = Stress test at 80° C. in a closed vial, degradation determined by HPLC; type: physicochemical
SMILES,Solubility in water compared to rosiglitazone maleate [1],"Water content (Karl Fisher) ([2]; 45% relative humidity, about 24 hours) [% w/w]","Water content (Karl Fisher) ([2]; 63% relative humidity, about 24 hours) [% w/w]","Water content (Karl Fisher) ([2]; 86% relative humidity, about 24 hours) [% w/w]","Water content (Karl Fisher) ([2]; Initial, before exposure to humidity) [% w/w]",Stability (general statement) [3],"Degradation after stress test as determined by HPLC ([3]; 80° C., about 160 hours, closed vial)"
"CN(CCOc1ccc(CC2SC(=O)NC2=O)cc1)c1ccccn1.O=P(O)(O)O (stereo not shown) [Form E, 5-[[4-[2-(methyl-2-pyridinylamino)ethoxy]phenyl]methyl]-2,4-thiazolidinedione phosphate]",comparable or even more expressed,–,–,–,–,–,–
"CN(CCOc1ccc(CC2SC(=O)NC2=O)cc1)c1ccccn1.O=P(O)(O)O (stereo not shown) [Form A, 5-[[4-[2-(methyl-2-pyridinylamino)ethoxy]phenyl]methyl]-2,4-thiazolidinedione phosphate]",–,3.42,3.37,3.58,2.8,good stability,no degradation

# Source: patent publication US20080319024A1, “Rosiglitazone Phosphate and Polymorphic Forms” (priority 2004, published 2008)
